The values that follow come from patent US8846569B2, “Pesticidal bis-organosulfur compounds” (Merial Limited, priority 2009, dated 2014).

Bounds are passed on as bounds.

Assay type in all cases: in vivo
The test system of one experiment is Plutella xylostella. Kind of experiment: Diamond back moth (Plutella xylostella) stomach poison leaf dip test. Conditions: for activity in [%]: 10 ppm, scale 0% no biological activity to 100% total control. How it is done:
The test solution is prepared at the day of use.
Leaves of Chinese cabbage are dipped in test solution and air-dried. Treated leaves are placed in petri dished lined with moist filter paper. Mortality is recorded 24, 72, and 120 hours after treatment.
The biological tests were conducted as described above.

For a further experiment, the system named is Aedes aegypti. Kind of experiment: Aedes aegypti neonate larvae motility assay. Conditions: larval motility, dose response. How it is done: Compounds formulated in 100% DMSO are tested in microtiter plates containing 180 ul 1× Luria Broth media and 10 neonate A. aegypti larvae. The efficacy of a compound is determined based on the motility of the larvae as compared to average motility of control wells containing DMSO only. A dose response assay is conducted with compounds with >80% reduction in motility in the primary assay to determine an EC50 value. Selected compounds are advanced to insecticide secondary assays.

The subject of another experiment is Heliothis virescens. Kind of experiment: Tobacco budworm (Heliothis virescens) diet/egg test. The conditions noted are these: for mortality at 2500 ppm: Heliothis virescens, 120 h, egg and larval mortality, 5 days, read-out: mortality in comparison with untreated controls. How it is done:
For evaluating control of tobacco budworm (Heliothis virescens) the test unit consisted of 96-well-microtiter plates containing an insect diet and 15-25 H. virescens eggs.
The compounds were formulated using a solution containing 75% v/v water and 25% v/v DMSO. Different concentrations of formulated compounds were sprayed onto the insect diet at 10 μl, using a custom built micro atomizer, at two replications.
(§1) After application, microtiter plates were incubated at about 28±1° C. and about 80±5% relative humidity for 5 days. Egg and larval mortality was then visually assessed.
The biological activity shown tables under CB.1 and CB.2 was evaluated on scale range from 0% as showing no biological activity to 100% as having total control. The biological tests were conducted as described above.

A further experiment deals with Megoura viciae. Briefly: Vetch aphid (Megoura viciae) leaf disk test. Conditions: foliar, 120 h, 2500 ppm, adult aphids on sprayed broad bean leaf disks, 5 days, read-out: mortality in comparison with untreated controls. How it is done: For evaluating control of vetch aphid (Megoura viciae) through contact or systemic means the test unit consisted of 24-well-microtiter plates containing broad bean leaf disks.
The compounds were formulated using a solution containing 75% v/v water and 25% v/v DMSO. Different concentrations of formulated compounds were sprayed onto the leaf disks at 2.5 μl, using a custom built micro atomizer, at two replications.
After application, the leaf disks were air-dried and 5-8 adult aphids placed on the leaf disks inside the microtiter plate wells. The aphids were then allowed to suck on the treated leaf disks and incubated at about 23±1° C. and about 50±5% relative humidity for 5 days. Aphid mortality and fecundity was then visually assessed.

A further experiment has as its system Anthonomus grandis. Briefly: Boll weevil (Anthonomus grandis) diet/egg test. The conditions noted are these: 120 h, 2500 ppm, egg and larval mortality, 5 days, read-out: mortality in comparison with untreated controls. As to the method: For evaluating control of boll weevil (Anthonomus grandis) the test unit consisted of 24-well-microtiter plates containing an insect diet and 20-30 A. grandis eggs.
The compounds were formulated using a solution containing 75% v/v water and 25% v/v DMSO. Different concentrations of formulated compounds were sprayed onto the insect diet at 20 μl, using a custom built micro atomizer, at two replications.
After application, microtiter plates were incubated at about 23±1° C. and about 50±5% relative humidity for 5 days. Egg and larval mortality was then visually assessed.

In another experiment the test system is Myzus persicae. Kind of experiment: Green peach aphid (Myzus persicae) artificial diet test. Conditions: 72 h, 2500 ppm, adult aphids on treated artificial diet, 3 days, read-out: mortality in comparison with untreated controls. The source says:
For evaluating control of green peach aphid (Myzus persicae) the test unit consisted of 96-well-microtiter plates containing liquid artificial diet under an artificial membrane.
The compounds were formulated using a solution containing 75% v/v water and 25% v/v DMSO. Different concentrations of formulated compounds were pipetted into the aphid diet, using a custom built pipetter, at two replications.
After application, 5-8 adult aphids were placed on the artificial membrane inside the microtiter plate wells. The aphids were then allowed to suck on the treated aphid diet and incubated at about 23±1° C. and about 50±5% relative humidity for 3 days. Aphid mortality and fecundity was then visually assessed.

Another experiment has as its system Ceratitis capitata. Kind of experiment: Mediterranean fruitfly (Ceratitis capitata) diet/egg test. The conditions noted are these: 120 h, 2500 ppm, egg and larval mortality, 5 days, read-out: mortality in comparison with untreated controls. As to the method:
For evaluating control of Mediterranean fruitfly (Ceratitis capitata) the test unit consisted of microtiter plates containing an insect diet and 50-80 C. capitata eggs.
The compounds were formulated using a solution containing 75% v/v water and 25% v/v DMSO. Different concentrations of formulated compounds were sprayed onto the insect diet at 5 nl, using a custom built micro atomizer, at two replications.
as §1

With `CC(C#N)(CCC(F)(F)F)S(=O)(=O)CCC(F)(F)C(F)(F)F` (stereo not drawn) [CE. 2, reference compound], in the experiment on Plutella xylostella, the “activity in [%]” value worked out at 0%.
What is called EC50 is the concentration that produces a half-maximal response. For orientation: mortality means the percentage killed. In the case of `N#CC(CCSC(F)(F)F)SCCC(F)(F)C(F)(F)F` (stereo not drawn) [II-15, 2-(3,3,4,4,4-Pentafluoro-butylsulfanyl)-4-trifluoromethylsulfanyl-butyronitrile], in the experiment with Aedes aegypti, the EC50 was under 5 µg/mL. The mortality at 2500 ppm with Heliothis virescens, with Megoura viciae, in the experiment on Anthonomus grandis, in the experiment with Myzus persicae and in the experiment on Ceratitis capitata was over 90% in each case.
As to `N#CC(CCSC(F)(F)F)S(=O)(=O)CCC(F)(F)C(F)(F)F` (stereo not drawn) [II-1, 2-(3,3,4,4,4-Pentafluoro-butane-1-sulfonyl)-4-trifluoromethylsulfanyl-butyronitrile], in the experiment with Aedes aegypti, the EC50 is under 5 µg/mL. Besides, in the experiment on Heliothis virescens (800 ppm, scale 0% no biological activity to 100% total control), the “activity in [%]” value is reported as 100%. Besides, the mortality at 2500 ppm with Heliothis virescens, in the experiment on Megoura viciae, in the experiment with Anthonomus grandis, in the experiment with Myzus persicae and in the experiment on Ceratitis capitata was over 90% throughout. Also, the mortality at 500 ppm with Plutella xylostella (Plutella xylostella, foliar, 500 ppm, dipped Chinese cabbage leaves, stomach poison, read-out: mortality in comparison with untreated controls) is over 90%.
As for `CCC(C#N)(CCSC(F)(F)F)S(=O)(=O)CCC(F)(F)C(F)(F)F` (stereo not drawn) [II-17, 2-Ethyl-2-(3,3,4,4,4-pentafluoro-butane-1-sulfonyl)-4-trifluoromethylsulfanyl-butyronitrile], the 50% effective concentration (EC50) with Aedes aegypti is under 5 µg/mL. The mortality at 2500 ppm in the experiment on Heliothis virescens, in the experiment on Anthonomus grandis, in the experiment on Myzus persicae and in the experiment with Ceratitis capitata was over 90% in each case.
Turning to `CC(C#N)(CCSC(F)(F)F)S(=O)(=O)CCC(F)(F)C(F)(F)F` (stereo not drawn) [II-2, 2-Methyl-2-(3,3,4,4,4-pentafluoro-butane-1-sulfonyl)-4-trifluoromethyl-sulfanyl-butyronitrile], the “activity in [%]” value in the experiment on Plutella xylostella turned out to be 100%.
